{
  "source": "patent US8697739B2",
  "about": "“Bicyclic acetyl-CoA carboxylase inhibitors and uses thereof” (Novartis AG, priority 2010, dated 2014)",
  "target": "T1, human acetyl-CoA carboxylase 2 (ACC2) (Homo sapiens, UniProt O00763)",
  "T1 construct": "The cDNA encoding amino acids 144 to 2458 of human acetyl-CoA carboxylase 2; made in house; host or cells: Sf9 insect cells (baculovirus, pFastBac1)",
  "T1 sequence (O00763 144-2458)": "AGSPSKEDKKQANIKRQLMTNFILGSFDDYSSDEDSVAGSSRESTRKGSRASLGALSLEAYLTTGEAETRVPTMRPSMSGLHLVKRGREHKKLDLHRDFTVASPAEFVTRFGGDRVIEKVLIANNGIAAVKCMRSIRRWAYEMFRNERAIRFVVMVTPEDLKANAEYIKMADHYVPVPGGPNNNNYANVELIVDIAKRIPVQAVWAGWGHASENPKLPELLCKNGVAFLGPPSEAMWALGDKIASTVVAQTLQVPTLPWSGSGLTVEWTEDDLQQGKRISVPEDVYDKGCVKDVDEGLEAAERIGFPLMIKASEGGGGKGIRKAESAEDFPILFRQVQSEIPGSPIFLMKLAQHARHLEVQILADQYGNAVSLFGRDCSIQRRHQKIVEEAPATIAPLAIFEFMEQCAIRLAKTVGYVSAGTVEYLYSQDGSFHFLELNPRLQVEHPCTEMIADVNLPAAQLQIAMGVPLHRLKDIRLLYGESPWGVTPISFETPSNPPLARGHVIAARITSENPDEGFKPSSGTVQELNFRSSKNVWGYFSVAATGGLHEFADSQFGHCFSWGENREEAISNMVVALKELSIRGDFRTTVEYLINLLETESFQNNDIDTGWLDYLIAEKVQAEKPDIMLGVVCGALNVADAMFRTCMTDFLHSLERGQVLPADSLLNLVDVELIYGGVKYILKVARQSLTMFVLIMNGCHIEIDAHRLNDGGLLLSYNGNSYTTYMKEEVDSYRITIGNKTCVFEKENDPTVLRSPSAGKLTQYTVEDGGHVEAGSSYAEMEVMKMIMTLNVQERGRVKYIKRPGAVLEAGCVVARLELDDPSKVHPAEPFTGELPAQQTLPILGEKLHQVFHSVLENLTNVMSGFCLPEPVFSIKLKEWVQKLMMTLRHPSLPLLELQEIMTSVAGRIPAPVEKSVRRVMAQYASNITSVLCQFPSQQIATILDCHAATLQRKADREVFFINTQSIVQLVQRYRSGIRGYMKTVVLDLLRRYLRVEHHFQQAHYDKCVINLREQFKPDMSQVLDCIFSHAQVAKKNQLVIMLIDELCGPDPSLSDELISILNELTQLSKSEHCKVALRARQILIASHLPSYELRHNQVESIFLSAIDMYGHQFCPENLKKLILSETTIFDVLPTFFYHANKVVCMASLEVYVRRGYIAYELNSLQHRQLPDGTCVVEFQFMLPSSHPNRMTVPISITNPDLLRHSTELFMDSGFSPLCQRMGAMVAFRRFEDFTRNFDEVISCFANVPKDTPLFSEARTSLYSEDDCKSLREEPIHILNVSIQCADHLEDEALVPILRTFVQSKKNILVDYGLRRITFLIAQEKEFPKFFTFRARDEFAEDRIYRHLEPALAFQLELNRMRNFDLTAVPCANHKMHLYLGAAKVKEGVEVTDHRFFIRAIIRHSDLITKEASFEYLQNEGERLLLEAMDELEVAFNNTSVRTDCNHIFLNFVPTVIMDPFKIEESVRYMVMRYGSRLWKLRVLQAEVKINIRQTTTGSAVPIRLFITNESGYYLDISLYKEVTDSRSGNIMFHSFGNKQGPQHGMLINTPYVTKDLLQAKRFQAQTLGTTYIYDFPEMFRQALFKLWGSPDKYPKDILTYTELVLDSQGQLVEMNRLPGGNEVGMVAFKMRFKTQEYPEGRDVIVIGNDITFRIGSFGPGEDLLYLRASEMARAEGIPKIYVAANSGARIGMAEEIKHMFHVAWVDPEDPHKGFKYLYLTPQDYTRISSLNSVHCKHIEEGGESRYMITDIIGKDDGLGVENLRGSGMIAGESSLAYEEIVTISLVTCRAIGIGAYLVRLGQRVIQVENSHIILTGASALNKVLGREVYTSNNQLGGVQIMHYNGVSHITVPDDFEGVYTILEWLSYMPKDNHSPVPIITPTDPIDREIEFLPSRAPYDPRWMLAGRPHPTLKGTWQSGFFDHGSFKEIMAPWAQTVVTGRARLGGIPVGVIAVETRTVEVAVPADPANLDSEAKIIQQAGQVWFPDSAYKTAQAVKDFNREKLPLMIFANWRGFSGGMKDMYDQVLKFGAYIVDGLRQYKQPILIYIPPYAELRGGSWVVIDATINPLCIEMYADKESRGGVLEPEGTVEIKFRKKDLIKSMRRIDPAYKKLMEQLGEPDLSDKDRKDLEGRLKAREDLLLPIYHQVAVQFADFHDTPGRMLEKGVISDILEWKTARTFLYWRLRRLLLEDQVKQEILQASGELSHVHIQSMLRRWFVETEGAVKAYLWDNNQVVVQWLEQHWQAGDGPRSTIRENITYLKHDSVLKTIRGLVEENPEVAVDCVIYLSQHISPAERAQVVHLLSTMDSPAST",
  "test": "Acetyl-CoA carboxylase enzyme assay (malonyl-CoA formation by LC/MS/MS)",
  "assay_type": "biochemical",
  "conditions": "recombinant human ACC2 (aa 144-2458); read-out: IC50 ACC2",
  "description": "The cDNA encoding amino acids 144 to 2458 of human acetyl-CoA carboxylase 2 (ACC2, GenBank Accession #NM_001093) was cloned into the SalI and NotI sites of pFastBac1 (Invitrogen; Carlsbad, Calif.). The resulting plasmid was used to generate a recombinant ACC2 baculovirus that was amplified and titered according to the protocols in the Bac-to-Bac baculovirus expression system manual (Invitrogen). The titered virus was used to infect Sf9 cells grown in Ex-Cell 420 serum-free medium (JRH Biosciences; Lenexa, Kans.). At 48 hours post-infection, the cells were harvested and stored at −80° C. until purification. ACC2 was purified using ammonium sulfate precipitation and anion exchange chromatography.\nThe enzymatic assay was run as follows: 30 μL of reaction buffer (100 mM HEPES pH 7.5, 20 mM MgCl2, 20 mM potassium citrate, 2 mM DTT) was added to a 384-well microtiter plate followed by 2 μL of the test compound (or 100% DMSO control). ACC2 protein (10 μL of a 50 nM working solution) was added to plate, which was incubated at room temperature for 15 minutes. A 30 μL addition of substrate solution (50 μM acetyl-CoA, 120 μM ATP, 2 mM KHCO3) was used to initiate the reactions which were quenched with 6% acetic acid (40 μL). ACC catalyzed malonyl-CoA formation was detected by LC/MS/MS using a Cohesive Technologies LX Series multiplex LC/MSIMS system configured with four binary pumps (Agilent Technologies; Palo Alto, Calif.), a dual arm autosampler (Leap Technologies; Cary, N.C.), and one Quattro Micro triple quadrupole mass spectrometer (Waters, Milford, Mass.), all run by Aria Software version 1.5 (Cohesive Technologies; Franklin, Mass.). Four samples were injected (20 μL) onto four Phenosphere NEXT C18 30×2 mm 5 μm columns (Phenomenex; Torrance, Calif.), eluted by four separate pumps, running identical gradients, through a column switching manifold with the one outlet fitted to the electrospray (ESI) source. Malonyl-CoA was eluted with 5 mM ammonium acetate, pH 4.5 (Buffer A) and 100% acetonitrile (Buffer B) via a step gradient. Argon was used as the collision gas and the following species were monitored via MRM detection: malonyl-CoA (853.8>346.9), internal standard (A: [^13C3]-malonyl-CoA, 857>350). The lower limit of detection is 0.3 uM for malonyl-CoA in this assay.",
  "data": [
    {"compound": "Cn1c(C2CC2)cc2ccc(S(=O)(=O)N[C@H]3CC[C@](C)(C(=O)N4CCOCC4)CC3)cc21", "note": "[Example 24, 2-cyclopropyl-1-methyl-N-((1r,4r)-4-methyl-4-(morpholine-4-carbonyl)cyclohexyl)-1H-indole-6-sulfonamide]", "values": [
      {"measurement": "IC50", "value": 230, "unit": "nM"}
    ]},
    {"compound": "C[C@@H](NC(=O)[C@H]1CC[C@H](NS(=O)(=O)c2ccc3c(Cl)c[nH]c3c2)CC1)c1ccc(F)cc1", "note": "[Example 26, (1r,4R)-4-(3-chloro-1H-indole-6-sulfonamido)-N—((R)-1-(4-fluorophenyl)ethyl)cyclohexanecarboxamide]", "values": [
      {"measurement": "IC50", "value": 20, "unit": "nM"}
    ]},
    {"compound": "CC(C)[C@H](N)C(=O)OCc1ccc(-c2cc3ccc(S(=O)(=O)N[C@H]4CC[C@H](C(=O)N[C@H](C)c5ccc(F)cc5)CC4)cc3[nH]2)cc1", "note": "[Example 27, (S)-4-(6-(N-((1R,4r)-4-((R)-1-(4-fluorophenyl)ethylcarbamoyl)cyclohexyl)sulfamoyl)-1H-indol-2-yl)benzyl 2-amino-3-methylbutanoate]", "values": [
      {"measurement": "IC50", "value": "< 10", "unit": "nM"}
    ]},
    {"compound": "Cc1c(C2CC2)n(C)c2cc(S(=O)(=O)N[C@H]3CC[C@H](C(=O)N4CCOC[C@@H]4C)CC3)ccc12", "note": "[Example 32, 2-cyclopropyl-1,3-dimethyl-N-((1S,4r)-4-((S)-3-methylmorpholine-4-carbonyl)cyclohexyl)-1H-indole-6-sulfonamide]", "values": [
      {"measurement": "IC50", "value": 245, "unit": "nM"}
    ]},
    {"compound": "C[C@@H](NC(=O)[C@H]1CC[C@H](NS(=O)(=O)c2cnc3c(c2)NCCN3)CC1)c1ccc(F)cc1", "note": "[Example 33, (1r,4R)—N—((R)-1-(4-fluorophenyl)ethyl)-4-(1,2,3,4-tetrahydropyrido[3,2-b]pyrazine-7-sulfonamido)cyclohexanecarboxamide]", "values": [
      {"measurement": "IC50", "value": 140, "unit": "nM"}
    ]},
    {"compound": "C[C@@H](NC(=O)[C@H]1CC[C@H](NS(=O)(=O)c2cnc3c(c2)N(C)CCN3C)CC1)c1ccc(F)cc1", "note": "[Example 34, (1r,4R)-4-(1,4-dimethyl-1,2,3,4-tetrahydropyrido[3,2-b]pyrazine-7-sulfonamido)-N—((R)-1-(4-fluorophenyl)ethyl)cyclohexanecarboxamide]", "values": [
      {"measurement": "IC50", "value": 138, "unit": "nM"}
    ]},
    {"compound": "C[C@@H](NC(=O)[C@H]1CC[C@H](NS(=O)(=O)c2cnc3c(c2)NCCS3)CC1)c1ccc(F)cc1", "note": "[Example 35, (1r,4R)-4-(2,3-dihydro-1H-pyrido[2,3-b][1,4]thiazine-7-sulfonamido)-N—((R)-1-(4-fluorophenyl)ethyl)cyclohexanecarboxamide]", "values": [
      {"measurement": "IC50", "value": 10, "unit": "nM"}
    ]},
    {"compound": "CCOc1ccc2cc(S(=O)(=O)N[C@H]3CC[C@H](C(=O)N[C@H](C)c4ccc(F)cc4)CC3)ccc2n1", "note": "[Example 36, (1r,4R)-4-(2-ethoxyquinoline-6-sulfonamido)-N—((R)-1-(4-fluorophenyl)ethyl)cyclohexanecarboxamide]", "values": [
      {"measurement": "IC50", "value": 50, "unit": "nM"}
    ]},
    {"compound": "CCOc1ccc2cc(S(=O)(=O)N[C@H]3CC[C@H](C(=O)N[C@@H](c4ccccc4)[C@@H](C)O)CC3)ccc2n1", "note": "[Example 37, (1r,4S)-4-(2-ethoxyquinoline-6-sulfonamido)-N-((1S,2R)-2-hydroxy-1-phenylpropyl)cyclohexanecarboxamide]", "values": [
      {"measurement": "IC50", "value": 75, "unit": "nM"}
    ]},
    {"compound": "C[C@@H](NC(=O)[C@H]1CC[C@H](NS(=O)(=O)c2ccc3nc(N4CCN(C)CC4)ccc3c2)CC1)c1ccc(F)cc1", "note": "[Example 38, (1r,4R)-N-((R)-1-(4-fluorophenyl)ethyl)-4-(2-(4-methylpiperazin-1-yl)quinoline-6-sulfonamido)cyclohexanecarboxamide]", "values": [
      {"measurement": "IC50", "value": 50, "unit": "nM"}
    ]},
    {"compound": "C[C@@H](NC(=O)[C@H]1CC[C@H](NS(=O)(=O)c2ccc3nc(-c4ccncc4)ccc3c2)CC1)c1ccc(F)cc1", "note": "[Example 39, (1r,4R)-N-((R)-1-(4-fluorophenyl)ethyl)-4-(2-(pyridin-4-yl)quinoline-6-sulfonamido)cyclohexanecarboxamide]", "values": [
      {"measurement": "IC50", "value": 25, "unit": "nM"}
    ]},
    {"compound": "C[C@@H](NC(=O)[C@H]1CC[C@H](NS(=O)(=O)c2ccc3nc(C(F)(F)F)cn3c2)CC1)c1ccc(F)cc1", "note": "[Example 40, (1r,4R)-N-((R)-1-(4-fluorophenyl)ethyl)-4-(2-(trifluoromethyl)imidazo[1,2-a]pyridine-6-sulfonamido)cyclohexanecarboxamide]", "values": [
      {"measurement": "IC50", "value": 34100, "unit": "nM"}
    ]},
    {"compound": "C[C@@H](NC(=O)[C@H]1CC[C@H](NC(=O)Nc2ccc3[nH]c(-c4ccccc4)nc3c2)CC1)c1ccc(F)cc1", "note": "[Example 41, (1r,4R)-N-((R)-1-(4-fluorophenyl)ethyl)-4-(3-(2-phenyl-1H-benzo[d]imidazol-5-yl)ureido)cyclohexanecarboxamide]", "values": [
      {"measurement": "IC50", "value": 4640, "unit": "nM"}
    ]},
    {"compound": "C[C@@H](NC(=O)[C@H]1CC[C@H](NS(=O)(=O)c2ccc3nc(Cl)ccc3c2)CC1)c1ccc(F)cc1", "note": "[Example 42, (1r,4R)-4-(2-chloroquinoline-6-sulfonamido)-N-((R)-1-(4-fluorophenyl)ethyl)cyclohexanecarboxamide]", "values": [
      {"measurement": "IC50", "value": 94, "unit": "nM"}
    ]},
    {"compound": "O=C([C@H]1CC[C@H](NS(=O)(=O)c2cnc3ccccc3c2)CC1)N1CCCC1c1ccccc1", "note": "(some centres unmarked) [Example 43, N-((1r,4r)-4-(2-phenylpyrrolidine-1-carbonyl)cyclohexyl)quinoline-3-sulfonamide]", "values": [
      {"measurement": "IC50", "value": 412, "unit": "nM"}
    ]},
    {"compound": "CC(NC(=O)[C@H]1CC[C@H](NS(=O)(=O)c2cnc3ccccc3c2)CC1)c1cccc(F)c1", "note": "(some centres unmarked) [Example 44, (1r,4r)-N-(1-(3-fluorophenyl)ethyl)-4-(quinoline-3-sulfonamido)cyclohexanecarboxamide]", "values": [
      {"measurement": "IC50", "value": 450, "unit": "nM"}
    ]},
    {"compound": "CC(NC(=O)[C@H]1CC[C@H](NS(=O)(=O)c2cnc3ccccc3c2)CC1)c1ccc(C(F)(F)F)cc1", "note": "(some centres unmarked) [Example 45, (1r,4r)-4-(quinoline-3-sulfonamido)-N-(1-(4-(trifluoromethyl)phenyl)ethyl)cyclohexanecarboxamide]", "values": [
      {"measurement": "IC50", "value": "> 35000", "unit": "nM"}
    ]},
    {"compound": "C[C@@H](NC(=O)[C@H]1CC[C@H](NS(=O)(=O)c2cnc3ccccc3c2)CC1)c1ccccc1C(F)(F)F", "note": "[Example 46, (1r,4R)-4-(quinoline-3-sulfonamido)-N-((R)-1-(2-(trifluoromethyl)phenyl)ethyl)cyclohexanecarboxamide]", "values": [
      {"measurement": "IC50", "value": 9040, "unit": "nM"}
    ]},
    {"compound": "CN1CCN(C(=O)[C@H]2CC[C@H](NS(=O)(=O)c3cnc4ccccc4c3)CC2)C(c2ccccc2)C1", "note": "(some centres unmarked) [Example 47, N-((1r,4r)-4-(4-methyl-2-phenylpiperazine-1-carbonyl)cyclohexyl)quinoline-3-sulfonamide]", "values": [
      {"measurement": "IC50", "value": 4220, "unit": "nM"}
    ]},
    {"compound": "O=C([C@H]1CC[C@H](NS(=O)(=O)c2cnc3ccccc3c2)CC1)N1CCCC1C(F)(F)F", "note": "(some centres unmarked) [Example 48, N-((1r,4r)-4-(2-(trifluoromethyl)pyrrolidine-1-carbonyl)cyclohexyl)quinoline-3-sulfonamide]", "values": [
      {"measurement": "IC50", "value": 32800, "unit": "nM"}
    ]},
    {"compound": "COc1ccc2cc(S(=O)(=O)N[C@H]3CC[C@H](C(=O)N[C@H](C)c4ccc(F)cc4)CC3)ccc2n1", "note": "[Example 49, (1r,4R)-N-((R)-1-(4-fluorophenyl)ethyl)-4-(2-methoxyquinoline-6-sulfonamido)cyclohexanecarboxamide]", "values": [
      {"measurement": "IC50", "value": 43, "unit": "nM"}
    ]},
    {"compound": "C[C@@H](NC(=O)[C@H]1CC[C@H](NS(=O)(=O)c2ccc3nc(OCC(F)(F)F)ccc3c2)CC1)c1ccc(F)cc1", "note": "[Example 50, (1r,4R)-N-((R)-1-(4-fluorophenyl)ethyl)-4-(2-(2,2,2-trifluoroethoxy)quinoline-6-sulfonamido)cyclohexanecarboxamide]", "values": [
      {"measurement": "IC50", "value": "> 35000", "unit": "nM"}
    ]},
    {"compound": "C[C@@H](NC(=O)[C@H]1CC[C@H](NS(=O)(=O)c2ccc3nc(OC4CCC4)ccc3c2)CC1)c1ccc(F)cc1", "note": "[Example 51, (1r,4R)-4-(2-cyclobutoxyquinoline-6-sulfonamido)-N-((R)-1-(4-fluorophenyl)ethyl)cyclohexanecarboxamide]", "values": [
      {"measurement": "IC50", "value": 101, "unit": "nM"}
    ]}
  ]
}
